Results from publication PMC7822063, “Analogues of 2′-hydroxychalcone with modified C4-substituents as the inhibitors against human acetylcholinesterase” (Journal of Enzyme Inhibition and Medicinal Chemistry, 2020).

What was measured:
human recombinant AChE = human recombinant AChE (Homo sapiens, UniProt P22303); experiment: biochemical; settings: for inhibition at 10 µM / IC50: mean of triplicate; for Selectivity index: IC50 (BuChE)/IC50 (AChE)
Procedure: To determine the inhibitory activity of the target compounds towards cholinesterases, the AChE and BuChE inhibition assays were performed in 96 well plates by the method of Ellman with slight modifications. […] Then, the mixture was incubated for 20 min at 37 °C. Subsequently, the reaction was initiated by addition of 50 μL (0.120 mM) of the substrate, acetylthiocholine (ATC) iodide or butyrylthiocholine (BTC) iodide (depending on the enzyme). […] Each assay was performed in triplicate. The percentage of inhibition was calculated using the following expression: (E–S)/E ×100 where E is the activity of the enzyme without test compound and S is the activity of the enzyme with the test compound. IC50 values were obtained from concentration-inhibition experiments by nonlinear regression analysis using PRISM® v5.0 (GraphPad Inc., San Diego, CA).
The designed 2′-hydroxychalcone derivatives were evaluated for their in vitro inhibitory activities against human recombinant AChE according to Ellman’s colorimetric assay method.

equine BuChE = equine BuChE (Equus caballus, UniProt P81908); experiment: biochemical; assay type: biochemical; settings: mean of triplicate
Sequence of equine BuChE (P81908 whole entry): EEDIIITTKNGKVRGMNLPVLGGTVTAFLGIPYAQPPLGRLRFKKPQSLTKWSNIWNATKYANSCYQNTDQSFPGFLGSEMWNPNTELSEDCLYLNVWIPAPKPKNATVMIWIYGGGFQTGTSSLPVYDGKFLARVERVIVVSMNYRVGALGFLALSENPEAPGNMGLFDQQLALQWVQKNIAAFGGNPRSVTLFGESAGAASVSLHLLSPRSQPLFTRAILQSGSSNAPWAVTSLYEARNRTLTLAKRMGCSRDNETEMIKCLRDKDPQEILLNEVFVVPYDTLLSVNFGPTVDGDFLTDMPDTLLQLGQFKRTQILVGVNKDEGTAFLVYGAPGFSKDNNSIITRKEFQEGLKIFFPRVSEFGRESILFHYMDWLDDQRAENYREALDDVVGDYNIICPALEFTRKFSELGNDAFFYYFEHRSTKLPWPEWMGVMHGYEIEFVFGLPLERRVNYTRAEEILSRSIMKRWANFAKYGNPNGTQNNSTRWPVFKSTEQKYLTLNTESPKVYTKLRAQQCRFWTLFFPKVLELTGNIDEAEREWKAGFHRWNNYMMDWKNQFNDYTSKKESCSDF

Sequence of human recombinant AChE (P22303 32-614): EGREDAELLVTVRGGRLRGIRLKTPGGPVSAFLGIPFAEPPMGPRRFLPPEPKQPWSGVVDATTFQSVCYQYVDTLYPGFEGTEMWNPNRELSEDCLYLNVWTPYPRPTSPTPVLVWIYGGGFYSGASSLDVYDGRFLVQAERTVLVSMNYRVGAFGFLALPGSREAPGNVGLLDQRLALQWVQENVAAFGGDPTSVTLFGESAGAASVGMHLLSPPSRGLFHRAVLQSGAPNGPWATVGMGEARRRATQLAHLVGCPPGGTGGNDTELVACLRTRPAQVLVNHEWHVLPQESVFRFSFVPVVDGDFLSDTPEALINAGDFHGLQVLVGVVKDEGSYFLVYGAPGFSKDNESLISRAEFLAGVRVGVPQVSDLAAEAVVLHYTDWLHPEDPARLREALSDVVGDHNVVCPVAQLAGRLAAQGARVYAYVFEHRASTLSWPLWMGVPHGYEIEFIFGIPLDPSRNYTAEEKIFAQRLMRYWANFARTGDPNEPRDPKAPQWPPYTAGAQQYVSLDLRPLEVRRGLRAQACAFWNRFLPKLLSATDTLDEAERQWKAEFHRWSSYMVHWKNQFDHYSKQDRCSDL

Structure (SMILES) | inhibition at 10 µM (human recombinant AChE) [%] | Selectivity index (human recombinant AChE) | IC50 (human recombinant AChE) [µM] | IC50 (equine BuChE) [µM] | Equine BuChE IC50 (equine BuChE)
CCN(CC)C(=O)Cc1ccc(/C=C/C(=O)c2ccc(OC)cc2O)cc1 [Compound 4a, (E)-N,N-diethyl-2-(4-(3-(2-hydroxy-4-methoxyphenyl)-3-oxoprop-1-en-1yl)phenyl)acetamide] | 67.2 | – | – | – | –
CCN(CC)C(=O)Cc1ccc(/C=C/C(=O)c2cc(OC)c(OC)cc2O)cc1 [Compound 4b, (E)-N,N-diethyl-2-(4-(3-(2-hydroxy-4,5-dimethoxyphenyl)-3-oxoprop-1-en-1-yl)phenyl)acetamide] | 58.5 | – | – | – | –
CCN(CC)C(=O)Cc1ccc(/C=C/C(=O)c2c(O)cc(OC)cc2OC)cc1 [Compound 4c, (E)-N,N-diethyl-2-(4-(3-(2-hydroxy-4,6-dimethoxyphenyl)-3-oxoprop-1-en-1-yl)phenyl)acetamide] | 87.5 | >30 | 3.3 ± 1.3 | > 100 | –
COc1ccc(C(=O)/C=C/c2ccc(CC(=O)N3CCCC3)cc2)c(O)c1 [Compound 4d, (E)-1-(2-hydroxy-4-methoxyphenyl)-3-(4-(2-oxo-2-(pyrrolidin-1-yl)ethyl)phenyl)prop-2-en-1-one] | 30.8 | – | – | – | –
COc1cc(O)c(C(=O)/C=C/c2ccc(CC(=O)N3CCCC3)cc2)cc1OC [Compound 4e, (E)-1-(2-hydroxy-4,5-dimethoxyphenyl)-3-(4-(2-oxo-2-(pyrrolidin-1-yl)ethyl)phenyl)prop-2-en-1-one] | 58.9 | – | – | – | –
O=C(O)Cc1ccc(/C=C/C(=O)c2ccccc2O)cc1 [Compound 4f, (E)-2-(4-(3-(2-hydroxyphenyl)-3-oxoprop-1-en-1-yl)phenyl)acetic acid] | 10.7 | – | – | – | –
COc1ccc(O)c(C(=O)/C=C/c2ccc(CC(=O)O)cc2)c1 [Compound 4g, (E)-2-(4-(3-(2-hydroxy-5-methoxyphenyl)-3-oxoprop-1-en-1-yl)phenyl)acetic acid] | 27 | – | – | – | –
COc1cc(O)c(C(=O)/C=C/c2ccc(CC(=O)O)cc2)c(OC)c1 [Compound 4h, (E)-2-(4-(3-(2-hydroxy-4,6-dimethoxyphenyl)-3-oxoprop-1-en-1-yl)phenyl)acetic acid] | 15.6 | – | – | – | –
COc1ccc(C(=O)/C=C/c2ccc(OCCN3CCCCC3)cc2)c(O)c1 [Compound 8a, (E)-1-(2-hydroxy-4-methoxyphenyl)-3-(4-(2-(piperidin-1-yl)ethoxy)phenyl)prop-2-en-1-one] | 79.9 | >24 | 4.2 ± 1.3 | > 100 | inactive
COc1ccc(C(=O)/C=C/c2ccc(OCCN3CCCC3)cc2)c(O)c1 [Compound 8b, (E)-1-(2-hydroxy-4-methoxyphenyl)-3-(4-(2-(pyrrolidin-1-yl)ethoxy)phenyl)prop-2-en-1-one] | 83 | 5.1 | 12.8 ± 4.8 | 65.6 ± 14.8 | –
COc1cc(O)c(C(=O)/C=C/c2ccc(OCCN3CCCCC3)cc2)cc1OC [Compound 8c, (E)-1-(2-hydroxy-4,5-dimethoxyphenyl)-3-(4-(2-(piperidin-1-yl)ethoxy)phenyl)prop-2-en-1-one] | 52.5 | – | – | – | –
COc1cc(O)c(C(=O)/C=C/c2ccc(OCCN3CCCC3)cc2)cc1OC [Compound 8d, (E)-1-(2-hydroxy-4,5-dimethoxyphenyl)-3-(4-(2-(pyrrolidin-1-yl)ethoxy)phenyl)prop-2-en-1-one] | 80.6 | 5.7 | 15.9 ± 1.8 | 89.9 ± 12 | –
COc1cc(O)c(C(=O)/C=C/c2ccc(OCCN3CCCCC3)cc2)c(OC)c1 [Compound 8e, (E)-1-(2-hydroxy-4,6-dimethoxyphenyl)-3-(4-(2-(piperidin-1-yl)ethoxy)phenyl)prop-2-en-1-one] | 83.6 | 4.0 | 4.6 ± 0.9 | 18.3 ± 8 | –
COc1cc(O)c(C(=O)/C=C/c2ccc(OCCN3CCCC3)cc2)c(OC)c1 [Compound 8f, (E)-1-(2-hydroxy-4,6-dimethoxyphenyl)-3-(4-(2-(pyrrolidin-1-yl)ethoxy)phenyl)prop-2-en-1-one] | 81.4 | 1.7 | 18.5 ± 3.8 | 31.3 ± 8.2 | –
